From US6995138B2, “Cross-linked glycopeptide-cephalosporin antibiotics” (priority 2002, dated 2006)
Converted amounts (≈) assume the structure as drawn.

Legend:
[1] = system: Methicillin-resistant S. aureus (MRSA 33591); test: Minimal inhibitory concentration (MIC), broth microdilution, MRSA; format: cell-based; conditions: Staphylococcus aureus, read-out: MIC (minimum inhibitory concentration)
Method: (§1) Minimal inhibitory concentration (MICs) assays were performed using the broth microdilution method set forth in NCCLS guidelines (see, NCCLS. 2000. Methods for Dilution Antimicrobial Susceptibility Tests for Bacteria That Grow Aerobically; Approved Standard—Fifth Ed., Vol. 20, No. 2). Bacterial strains were obtained from the American Type Tissue Culture Collection (ATCC), Stanford University Hospital (SU), Kaiser Permanente Regional Laboratory in Berkeley (KPB), Massachusetts General Hospital (MGH), the Centers for Disease Control (CDC), the San Francisco Veterans' Administration Hospital (SFVA) or the University of California San Francisco Hospital (UCSF). Vancomycinresistant enterococci were phenotyped as Van A or Van B based on their sensitivity to teicoplanin. Some vancomycin-resistant enterococci that had been genotyped as Van A, Van B, Van C1 or Van C2 were also obtained from the Mayo Clinic.
(§2) In this assay, cryopreserved bacterial cultures of reference and clinical strains were streaked for isolation on appropriate agar medium (i.e., Trypticase Soy Agar, Trypticase Soy Agar with defibrinated sheep erthrocytes, Brain Heart Infusion Agar, Chocolate Agar). Following incubation to allow formation of colonies, these plates were sealed with parafilm and stored refrigerated for up to two weeks. […] The MIC was read visually as the lowest concentration well with no bacterial growth. […]

[2] = system: Methicillin-sensitive S. aureus (MSSA 13709); test: Minimal inhibitory concentration (MIC), broth microdilution, MSSA; format: cell-based; conditions: Staphylococcus aureus, read-out: MIC (minimum inhibitory concentration)
Method: as §1, §2

[3] = system: MSSA 13709; test: Time-kill assay, MSSA; format: cell-based, Staphylococcus aureus; conditions: bactericidal in 24 hours
Method: (§3) Time-Kill Assay This time-kill assay is a method for measuring the rate of bactericidal activity of a test compound.
(§4) Bacteria were diluted in prewarmed media in shake flasks and incubated with shaking (200 rpm, 35° C.). At 0, 1, 4, and 24 hours samples were withdrawn from the flasks and bacteria were enumerated by plate counting. Subsequent to the initial sampling, a compound to be assayed was added to the shake flask culture. Plate counts at these intervals previous to and following addition of the compound were expressed graphically in a time-kill curve.

[4] = system: MRSA 33591; test: Time-kill assay, MRSA; format: cell-based, Staphylococcus aureus; conditions: bactericidal in 24 hours
Method: as §3, §4

[5] = system: MRSA 33591; test: In vivo efficacy in neutropenic mice (thigh infection); conditions: Staphylococcus aureus; neutropenic male CD-1 mice, MRSA 33591 thigh infection, iv, 24 hours post-treatment; read-out: ED50 (dose required to produce 50% of the maximum reduction in thigh titre)
Method: In vivo Efficacy Studies in Neutropenic Mice Animals (male CD-1 mice, 20-30 g) were acquired from Charles Rivers Laboratories (Gilroy, Calif.) and allowed access to food and water ad libitum. Neutropenia was induced via 200 mg/kg intraperitoneal (IP) injection of cyclophosphamide given four and two days prior to the inoculation of bacteria.
The organism used was either a susceptible or resistant strain of clinically relevant gram positive pathogens, such as methicillin-susceptible Staphylococcus aureus (MSSA 13709) and methicillin-resistant Staphylococcus aureus (MRSA 33591). The bacterial inoculum concentration was ˜10^6 CFU/mL. Animals were lightly anesthetized with isoflurane and […] of the bacterial inoculum was injected into the anterior thigh. One hour after the inoculation, animals were dosed intravenously with vehicle or the appropriate dose of the test compound. At 0 hours and 24 hours post-treatment, the animals were euthanized (CO2 asphyxiation) and the anterior and posterior thigh collected aseptically. The thigh was placed into 10 mL sterile saline and homogenized. Dilutions of the homogenate were plated onto triptic soy agar plates which were incubated overnight. The number of bacterial colonies on a given plate was multiplied by the dilution factor, divided by the thigh weight (in grams) and expressed as log CFU/g. […]

CN[C@H](CC(C)C)C(=O)N[C@H]1C(=O)N[C@@H](CC(N)=O)C(=O)N[C@H]2C(=O)N[C@H]3C(=O)N[C@H](C(=O)N[C@H](C(=O)O)c4cc(O)cc(O)c4-c4cc3ccc4O)[C@H](O)c3ccc(c(Cl)c3)Oc3cc2cc(c3O[C@@H]2O[C@H](CO)[C@@H](O)[C@H](O)[C@H]2O[C@H]2C[C@](C)(N)[C@H](O)[C@H](C)O2)Oc2ccc(cc2Cl)[C@H]1O [Vancomycin, vancomycin] was tested. Which MIC [1] did it give?
The MIC was 2 µg/mL (≈ 1.38 µM).

And the MIC [2]?
Its MIC is 1 µg/mL (≈ 0.69 µM).

And the “concentration at which bactericidal (≧3 log decrease in bacterial cell numbers)” value [3]?
Its value is 4 μg/mL.

And the “concentration at which bactericidal (≧3 log decrease in bacterial cell numbers)” value [4]?
The value was 4 μg/mL.

And the ED50 [5]?
The ED50 was 9 mg/kg.
